Starred links: 1 amine or outer side, 2 acyl side, 3 side chain; linkers in the order of their positions; H or OH if unused. Positions of bridges follow the written chain, without caps; N, C: chain ends. Non-standard residues stand in square brackets, D forms with d. Residues, ends and D or L forms follow the SMILES beside them. ξ: configuration not given here. *: point of attachment. dArg(Nω-CH2C6H4-3-CH2Gua) = N=C(N)NCc1cccc(CNC(=N)NCCC[C@@H](N)C(=O)O)c1; dArg(ω-(2S)-2,3-diOHpropyl) = N=C(NCCC[C@@H](N)C(=O)O)NC[C@H](O)CO; Bip(4'-NH) = O=C([C@H](Cc1ccc(-c2ccc(N[*:3])cc2)cc1)N[*:1])[*:2]; Indazole3carbonyl(1-CH2COOH) = O=C(O)Cn1nc(C(=O)*)c2ccccc21; Bip(4'-COOH) = N[C@@H](Cc1ccc(-c2ccc(C(=O)O)cc2)cc1)C(=O)O; Bip(4'-NHAc) = CC(=O)Nc1ccc(-c2ccc(C[C@H](N)C(=O)O)cc2)cc1; Phe(3-CH2NH2) = O=C([C@H](Cc1cccc(CN[*:3])c1)N[*:1])[*:2]; X42 = O=C(O)Cn1cc(C[C@H](NC(=O)c2ccccc2)C(=O)*)c2ccccc21; X11 = CC(=O)N[C@@H](Cc1cn(CC(=O)O)c2ccccc12)C(=O)*; Pro(cis-4-Ph) = O=C(O)[C@@H]1C[C@H](c2ccccc2)CN1; Ala(imidazol-2-yl) = N[C@@H](Cc1ncc[nH]1)C(=O)O; Ala(morpholin-4-yl) = N[C@@H](CN1CCOCC1)C(=O)O; Benzoyl(3-OCH2COOH) = O=C(O)COc1cccc(C(=O)*)c1; Phe(3-CONH2) = NC(=O)c1cccc(C[C@H](N)C(=O)O)c1; Phe(4-CH2NH2) = NCc1ccc(C[C@H](N)C(=O)O)cc1; Bip = N[C@@H](Cc1ccc(-c2ccccc2)cc1)C(=O)O; Phe(2-F) = N[C@@H](Cc1ccccc1F)C(=O)O; Val(3-OH) = CC(C)(O)[C@H](N)C(=O)O; 2Pal = N[C@@H](Cc1ccccn1)C(=O)O; Tic = O=C(O)[C@@H]1Cc2ccccc2CN1; Cha = N[C@@H](CC1CCCCC1)C(=O)O; X62 = COC(=O)Cc1cccc(C(=O)*)c1; Tle = CC(C)(C)[C@H](N)C(=O)O; Aze = O=C(O)[C@@H]1CCN1; ξE = NC(CCC(=O)O)C(=O)O; Sar = CNCC(=O)O
What follows are molecules tested against TNFα (Homo sapiens, UniProt P01375) (assay: TNF-Induced HEK-Blue Assay). Conditions: not given.
Format: cell-based

Chain of TNFα (P01375 77-233 limits assumed): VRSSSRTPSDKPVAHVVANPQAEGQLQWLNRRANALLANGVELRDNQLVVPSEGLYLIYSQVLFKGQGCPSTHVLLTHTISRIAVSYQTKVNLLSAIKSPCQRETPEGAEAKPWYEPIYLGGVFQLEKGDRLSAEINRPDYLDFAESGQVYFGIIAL

| Structure (SMILES) | IC50 [nM] |
| --- | --- |
| CC[C@H](C)[C@@H]1NC(=O)[C@@H]2CCN2C(=O)[C@H]([C@@H](C)CC)NC(=O)[C@@H](CCCNC(=N)N)NC(=O)[C@H](CC(=O)O)NC(=O)[C@H](Cc2ccc(O)cc2)NC(=O)CN(C)C(=O)[C@H](Cc2ccc(-c3ccc(NC(=O)c4nn(CC(=O)O)c5ccccc45)cc3)cc2)NC(=O)[C@H](Cc2ccc(-c3ccccc3)cc2)NC(=O)[C@H](C(C)(C)C)NC(=O)CSC[C@@H](C(=O)NCC(N)=O)NC(=O)[C@H](CC(C)C)NC(=O)[C@H](Cc2ccc(O)cc2)NC1=O [Example 357] ({CH2CO}-[Tle][Bip][Bip(4'-NH)](Indazole3carbonyl(1-CH2COOH))[Sar]YD[dR]I[Aze]IYLCG-NH2; thioether N-13) | 50 to 200 |
| CC[C@H](C)[C@@H]1NC(=O)[C@@H](CCCNC(=N)N)NC(=O)[C@H](CC(=O)O)NC(=O)[C@H](Cc2cnc[nH]2)NC(=O)CN(C)C(=O)[C@H](Cc2ccc(-c3ccc(NC(=O)c4cccc(CC(=O)OC)c4)cc3)cc2)NC(=O)[C@H](Cc2ccc(-c3ccc(C(=O)O)cc3)cc2)NC(=O)[C@H](CC2CCCCC2)NC(=O)CSC[C@@H](C(=O)NCC(N)=O)NC(=O)[C@H](CC(C)C)NC(=O)[C@H](Cc2c[nH]cn2)NC(=O)[C@H](C(C)C)NC(=O)[C@@H]2CCCN2C1=O [Example 503] ({CH2CO}-[Cha][Bip(4'-COOH)][Bip(4'-NH)](X62)[Sar]HD[dR]IPVHLCG-NH2; thioether N-13) | < 50 |
| CC[C@H](C)[C@@H]1NC(=O)[C@@H]2CCCN2C(=O)[C@H]([C@@H](C)CC)NC(=O)[C@@H](CCCNC(=N)N)NC(=O)[C@H](CC(=O)O)NC(=O)[C@H](Cc2ccccn2)NC(=O)CN(C)C(=O)[C@H](Cc2ccc(-c3ccc(NC(=O)[C@H](Cc4cn(CC(=O)O)c5ccccc45)NC(=O)c4ccccc4)cc3)cc2)NC(=O)[C@H](Cc2ccc(-c3ccccc3)cc2)NC(=O)[C@H](C(C)(C)C)NC(=O)CSC[C@@H](C(=O)NCC(N)=O)NC(=O)[C@H](CC(C)C)NC(=O)[C@H](Cc2cccc(C(N)=O)c2)NC1=O [Example 380] ({CH2CO}-[Tle][Bip][Bip(4'-NH)](X42)[Sar][2Pal]D[dR]IPI[Phe(3-CONH2)]LCG-NH2; thioether N-13) | 50 to 200 |

Same assay, conditions: HEK-Blue-CD40L cells, NF-kB-driven secreted alkaline phosphatase reporter; TNFα 0.5 ng/ml; 18 h; read-out: TNF induced HEK-Blue assay IC50 value

| IC50 [nM] | Structure (SMILES) |
| --- | --- |
| 50 to 200 | CC(C)C[C@@H]1NC(=O)[C@H](Cc2ccc(O)cc2)NC(=O)[C@H](C(C)C)NC(=O)[C@@H]2CCCN2C(=O)[C@H](C(C)C)NC(=O)[C@H](CCCNC(=N)N)NC(=O)[C@H](CC(=O)O)NC(=O)[C@@H]2C[C@H](c3ccccc3)CN2C(=O)CN(C)C(=O)[C@H](Cc2ccc(-c3ccccc3)cc2)NC(=O)[C@H](Cc2ccc(-c3ccccc3)cc2)NC(=O)[C@H](CN2CCOCC2)NC(=O)CSC[C@@H](C(=O)NCC(N)=O)NC1=O [Example 94] ({CH2CO}-[Ala(morpholin-4-yl)][Bip][Bip][Sar][Pro(cis-4-Ph)]DRVPVYLCG-NH2; thioether N-13) |
| < 50 | CC(C)C[C@@H]1NC(=O)[C@H](CCCNC(=N)N)NC(=O)[C@H](C(C)C)NC(=O)[C@@H]2CCCN2C(=O)[C@H](C(C)C)NC(=O)[C@@H](CCCNC(=N)NCc2cccc(CNC(=N)N)c2)NC(=O)[C@H](CC(=O)O)NC(=O)[C@@H]2CCCN2C(=O)CN(C)C(=O)[C@H](Cc2ccc(-c3ccc(NC(=O)c4cccc(OCC(=O)O)c4)cc3)cc2)NC(=O)[C@H](Cc2ccc(-c3ccccc3)cc2)NC(=O)[C@H](CN2CCOCC2)NC(=O)CSC[C@@H](C(=O)NCC(N)=O)NC1=O [Example 572] ({CH2CO}-[Ala(morpholin-4-yl)][Bip][Bip(4'-NH)](Benzoyl(3-OCH2COOH))[Sar]PD[dArg(Nω-CH2C6H4-3-CH2Gua)]VPVRLCG-NH2; thioether N-13) |
| 200 to 2000 | CC(C)C[C@@H]1NC(=O)[C@H](CCCNC(=N)N)NC(=O)[C@H](C(C)C)NC(=O)[C@@H]2CCCN2C(=O)[C@H](C(C)C)NC(=O)[C@@H](CCCNC(=N)NC[C@H](O)CO)NC(=O)[C@H](CC(=O)O)NC(=O)[C@@H]2CCCN2C(=O)CN(C)C(=O)[C@H](Cc2ccc(-c3ccc(NC(=O)c4cccc(OCC(=O)O)c4)cc3)cc2)NC(=O)[C@H](Cc2ccc(-c3ccccc3)cc2)NC(=O)[C@H](CN2CCOCC2)NC(=O)CSC[C@@H](C(=O)NCC(N)=O)NC1=O [Example 538] ({CH2CO}-[Ala(morpholin-4-yl)][Bip][Bip(4'-NH)](Benzoyl(3-OCH2COOH))[Sar]PD[dArg(ω-(2S)-2,3-diOHpropyl)]VPVRLCG-NH2; thioether N-13) |
| 200 to 2000 | CC(C)C[C@@H]1NC(=O)[C@H](CCCNC(=N)N)NC(=O)[C@H](CC(C)C)NC(=O)[C@@H]2CCCN2C(=O)[C@H](C(C)C)NC(=O)[C@H](CCCNC(=N)N)NC(=O)[C@H](CC(=O)O)NC(=O)[C@@H]2CCCN2C(=O)CN(C)C(=O)[C@H](Cc2ccc(-c3ccccc3)cc2)NC(=O)[C@H](Cc2ccc(-c3ccccc3)cc2)NC(=O)[C@H](Cc2ccccc2)NC(=O)CSC[C@@H](C(=O)NCC(N)=O)NC1=O [Example 21] ({CH2CO}-F[Bip][Bip][Sar]PDRVPLRLCG-NH2; thioether N-13) |
| 50 to 200 | CC(=O)Nc1ccc(-c2ccc(C[C@@H]3NC(=O)[C@H](Cc4ccc(-c5ccccc5)cc4)NC(=O)[C@H](CC4CCCCC4)NC(=O)CSC[C@@H](C(=O)NC(CCC(=O)O)C(N)=O)NC(=O)[C@H](CC(C)C)NC(=O)[C@H](Cc4ccc(O)cc4)NC(=O)[C@H](C(C)C)NC(=O)[C@@H]4CCCN4C(=O)[C@H](C(C)C)NC(=O)[C@@H](CCCNC(=N)N)NC(=O)[C@H](CC(=O)O)NC(=O)[C@@H]4CCCN4C(=O)CN(C)C3=O)cc2)cc1 (stereo partly drawn) [Example 321] ({CH2CO}-[Cha][Bip][Bip(4'-NHAc)][Sar]PD[dR]VPVYLC[ξE]-NH2; thioether N-13) |
| 50 to 200 | CC[C@H](C)[C@@H]1NC(=O)[C@@H]2CCCN2C(=O)[C@H]([C@@H](C)CC)NC(=O)[C@@H](CCCNC(=N)N)NC(=O)[C@H](CC(=O)O)NC(=O)[C@H](Cc2ccccn2)NC(=O)CN(C)C(=O)[C@H](Cc2ccc(-c3ccc(NC(=O)[C@H](Cc4cn(CC(=O)O)c5ccccc45)NC(C)=O)cc3)cc2)NC(=O)[C@H](Cc2ccc(-c3ccccc3)cc2)NC(=O)[C@H](C(C)(C)C)NC(=O)CSC[C@@H](C(=O)NCC(N)=O)NC(=O)[C@H](CC(C)C)NC(=O)[C@H](Cc2cccc(C(N)=O)c2)NC1=O [Example 379] ({CH2CO}-[Tle][Bip][Bip(4'-NH)](X11)[Sar][2Pal]D[dR]IPI[Phe(3-CONH2)]LCG-NH2; thioether N-13) |
| < 50 | CC(=O)Nc1ccc(-c2ccc(C[C@@H]3NC(=O)[C@H](Cc4ccc(-c5ccccc5)cc4)NC(=O)[C@H](CC4CCCCC4)NC(=O)CSC[C@@H](C(=O)NCC(N)=O)NC(=O)[C@H](CC(C)C)NC(=O)[C@H](Cc4cccc(CN)c4)NC(=O)[C@H](C(C)C)NC(=O)[C@@H]4CCCN4C(=O)[C@H](C(C)C)NC(=O)[C@@H](CCCNC(=N)N)NC(=O)[C@H](CC(=O)O)NC(=O)[C@H](Cc4ccc(O)cc4)NC(=O)CN(C)C3=O)cc2)cc1 [Example 283] ({CH2CO}-[Cha][Bip][Bip(4'-NHAc)][Sar]YD[dR]VPV[Phe(3-CH2NH2)]LCG-NH2; thioether N-13) |
| 50 to 200 | CC(C)C[C@@H]1NC(=O)[C@H](Cc2ccc(O)cc2)NC(=O)[C@H](C(C)C)NC(=O)[C@@H]2CCCN2C(=O)[C@H](Cc2ccc(O)cc2)NC(=O)[C@H](CCCNC(=N)N)NC(=O)[C@H](CC(=O)O)NC(=O)[C@H](Cc2ccc(O)cc2)NC(=O)CN(C)C(=O)[C@H](Cc2ccc(-c3ccccc3)cc2)NC(=O)[C@H](Cc2ccc(-c3ccccc3)cc2)NC(=O)[C@H](C(C)(C)O)NC(=O)CSC[C@@H](C(=O)NCC(N)=O)NC1=O [Example 110] ({CH2CO}-[Val(3-OH)][Bip][Bip][Sar]YDRYPVYLCG-NH2; thioether N-13) |
| < 50 | CC[C@H](C)[C@@H]1NC(=O)[C@@H](CCCNC(=N)N)NC(=O)[C@H](CC(=O)O)NC(=O)[C@H](Cc2cnc[nH]2)NC(=O)CN(C)C(=O)[C@H](Cc2ccc(-c3ccc(NC(C)=O)cc3)cc2)NC(=O)[C@H](Cc2ccc(-c3ccc(C(=O)O)cc3)cc2)NC(=O)[C@H](CC2CCCCC2)NC(=O)CSC[C@@H](C(=O)NCC(N)=O)NC(=O)[C@H](CC(C)C)NC(=O)[C@H](Cc2cnc[nH]2)NC(=O)[C@H](C(C)C)NC(=O)[C@@H]2Cc3ccccc3CN2C1=O [Example 274] ({CH2CO}-[Cha][Bip(4'-COOH)][Bip(4'-NHAc)][Sar]HD[dR]I[Tic]VHLCG-NH2; thioether N-13) |
| 200 to 2000 | CC(C)C[C@@H]1NC(=O)[C@H](CCCNC(=N)N)NC(=O)[C@H](C(C)C)NC(=O)[C@@H]2CCCN2C(=O)[C@H](Cc2ccc(CN)cc2)NC(=O)[C@H](CCCNC(=N)N)NC(=O)[C@H](CC(=O)O)NC(=O)[C@@H]2CCCN2C(=O)CN(C)C(=O)[C@H](Cc2ccc(-c3ccccc3)cc2)NC(=O)[C@H](Cc2ccc(-c3ccccc3)cc2)NC(=O)[C@H](CN2CCOCC2)NC(=O)CSC[C@@H](C(=O)NCC(N)=O)NC1=O [Example 51] ({CH2CO}-[Ala(morpholin-4-yl)][Bip][Bip][Sar]PDR[Phe(4-CH2NH2)]PVRLCG-NH2; thioether N-13) |
| 50 to 200 | CC[C@H](C)[C@@H]1NC(=O)[C@@H]2CCCN2C(=O)[C@H]([C@@H](C)CC)NC(=O)[C@@H](CCCNC(=N)N)NC(=O)[C@H](CC(=O)O)NC(=O)[C@H](Cc2ccccc2)NC(=O)CN(C)C(=O)[C@H](Cc2ccc(-c3ccc(NC(=O)[C@H](Cc4cn(CC(=O)O)c5ccccc45)NC(C)=O)cc3)cc2)NC(=O)[C@H](Cc2ccc(-c3ccc(C(=O)O)cc3)cc2)NC(=O)[C@H](C(C)(C)C)NC(=O)CSC[C@@H](C(=O)NCC(N)=O)NC(=O)[C@H](CC(C)C)NC(=O)[C@H](Cc2ncc[nH]2)NC1=O [Example 416] ({CH2CO}-[Tle][Bip(4'-COOH)][Bip(4'-NH)](X11)[Sar]FD[dR]IPI[Ala(imidazol-2-yl)]LCG-NH2; thioether N-13) |
| 200 to 2000 | CC(C)C[C@@H]1NC(=O)[C@H](CCCNC(=N)N)NC(=O)[C@H](C(C)C)NC(=O)[C@@H]2CCCN2C(=O)[C@H](Cc2ccccc2F)NC(=O)[C@H](CCCNC(=N)N)NC(=O)[C@H](CC(=O)O)NC(=O)[C@@H]2CCCN2C(=O)CN(C)C(=O)[C@H](Cc2ccc(-c3ccccc3)cc2)NC(=O)[C@H](Cc2ccc(-c3ccccc3)cc2)NC(=O)[C@H](C(C)(C)O)NC(=O)CSC[C@@H](C(=O)NCC(N)=O)NC1=O [Example 59] ({CH2CO}-[Val(3-OH)][Bip][Bip][Sar]PDR[Phe(2-F)]PVRLCG-NH2; thioether N-13) |
